The values below come from patent publication US11655235B2, “Pyrrolidine and piperidine compounds” (YUHAN CORPORATION, priority 2019, dated 2023).

Holding throughout (assay type): biochemical
For one assay, the target named is T1, recombinant human DPP7 (Homo sapiens, UniProt Q9UHL4).
T1 construct: purchased R&D Systems
Briefly: DPP7 inhibition, fluorogenic substrate Lys-Pro-AMC. The following applies: recombinant human DPP7. The essentials: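 Inhibitors are titrated in an 8-point series into the enzyme's assay buffer (DMSO no more than 0.5%). Substrate cleavage at 25 °C is followed by fluorescence, excitation 380 nm and emission 460 nm. IC50 values come from a four-variable logistic model.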

In another assay the target is T2, recombinant human DPP9 (Homo sapiens, UniProt Q86TI2).
T2 construct: purchased R&D Systems
Nature of the assay: DPP9 inhibition, fluorogenic substrate H-Gly-Pro-AMC. As to conditions: recombinant human DPP9. The protocol: (§1) The compounds according to the present technology were evaluated in terms of the inhibitory effect on the activity of dipeptidyl peptidases including FAP by using a substrate producing fluorescent substances upon enzymatic decomposition. The test was conducted at 25° C. to get a final reaction volume of 100 μL in a 96 black well plate. […] Briefly, the test compounds were dissolved in dimethyl sulfoxide (DMSO) at a concentration of 20 mM and then subjected to serial dilution, thereby creating an 8 point curve. As for the control group, a 6 point curve created by serial dilution of Talabostat in the same buffer solution was used. Fluorescence intensity was measured using a microplate reader (Flexstation3, Molecular Devices) under the wavelength condition exciting at 380 nm and reading the emission at 460 nm. The inhibitory effect of the test compounds was measured as a decrease (%) in the signal rate as compared to the control group without any inhibitor. Data was fixed to a logistic model with four variables and IC50 value was calculated using GraphPad Prism program. As for recombinant human DPP4 (R&D Systems), 25 mM tris (pH 8.0) buffer as a buffer solution and H-Gly-Pro-AMC (Bachem) as a substrate were used. As for recombinant human DPP7 (R&D Systems), 25 mM MES (pH 6.0) buffer as a buffer solution and Lys-Pro-AMC (Bachem) as a substrate were used. As for recombinant human DPP8 (PBS Bioscience), as a buffer solution, a 10 mM tris (pH 7.4) buffer comprising 10 mM of magnesium chloride and 0.05% of Tween 20, and Z-Ala-Pro-AMC (BPS Bioscience) as a substrate were used. As for recombinant human DPP9 (R&D Systems), a 25 mM tris (pH 8.0) buffer as a buffer solution and H-Gly-Pro-AMC (Bachem) as a substrate were used. As for recombinant human PREP (R&D System), as a buffer solution, a 25 mM tris (pH 7.5) buffer comprising 250 mM sodium chloride and 2.5 mM DTT (Dithiolthreitol), and Z-Gly-Pro-AMC (Bachem) as a substrate were used. The evaluation was made by using 10 ng of DPP4, PDD7, and PREP, 20 ng of DPP8, and 50 ng of DPP9 based on the final reaction. In the evaluation of DPP4, the test compounds were subjected to serial dilution in a buffer under the condition containing up to 0.1% of DMSO. In the evaluation of DPP7, DPP8, DPP9, and PREP, the test compounds were subjected to serial dilution in each buffer under the condition containing up to 0.5% of DMSO.

For another assay, the target named is T3, recombinant human PREP (Homo sapiens, UniProt P48147).
T3 construct: purchased R&D System
T3 sequence (P48147 1-710): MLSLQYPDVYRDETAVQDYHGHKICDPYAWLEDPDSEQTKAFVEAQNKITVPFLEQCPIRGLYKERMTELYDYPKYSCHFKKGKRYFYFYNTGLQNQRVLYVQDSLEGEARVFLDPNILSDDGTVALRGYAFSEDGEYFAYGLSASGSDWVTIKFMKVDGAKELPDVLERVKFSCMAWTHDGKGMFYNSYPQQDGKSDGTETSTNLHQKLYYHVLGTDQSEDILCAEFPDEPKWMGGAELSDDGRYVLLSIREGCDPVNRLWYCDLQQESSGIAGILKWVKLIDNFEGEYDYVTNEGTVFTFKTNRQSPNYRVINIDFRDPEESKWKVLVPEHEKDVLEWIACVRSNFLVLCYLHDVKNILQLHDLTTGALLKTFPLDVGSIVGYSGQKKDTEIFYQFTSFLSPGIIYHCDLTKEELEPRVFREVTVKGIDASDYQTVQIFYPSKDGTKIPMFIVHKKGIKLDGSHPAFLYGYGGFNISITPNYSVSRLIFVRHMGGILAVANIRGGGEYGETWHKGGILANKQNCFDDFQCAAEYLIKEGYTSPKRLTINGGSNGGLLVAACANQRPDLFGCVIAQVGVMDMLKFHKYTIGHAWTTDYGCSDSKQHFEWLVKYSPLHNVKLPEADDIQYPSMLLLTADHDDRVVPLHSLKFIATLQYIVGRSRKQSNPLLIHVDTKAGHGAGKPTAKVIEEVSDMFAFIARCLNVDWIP
Nature of the assay: PREP inhibition, fluorogenic substrate Z-Gly-Pro-AMC. As to conditions: Inhibitory Activity (IC50, nM) PREP, recombinant human PREP. The protocol:
as §1

The next assay addresses T4, Recombinant human FAP (Homo sapiens, UniProt Q12884).
T4 construct: purchased R&D systems
T4 sequence (Q12884 1-760): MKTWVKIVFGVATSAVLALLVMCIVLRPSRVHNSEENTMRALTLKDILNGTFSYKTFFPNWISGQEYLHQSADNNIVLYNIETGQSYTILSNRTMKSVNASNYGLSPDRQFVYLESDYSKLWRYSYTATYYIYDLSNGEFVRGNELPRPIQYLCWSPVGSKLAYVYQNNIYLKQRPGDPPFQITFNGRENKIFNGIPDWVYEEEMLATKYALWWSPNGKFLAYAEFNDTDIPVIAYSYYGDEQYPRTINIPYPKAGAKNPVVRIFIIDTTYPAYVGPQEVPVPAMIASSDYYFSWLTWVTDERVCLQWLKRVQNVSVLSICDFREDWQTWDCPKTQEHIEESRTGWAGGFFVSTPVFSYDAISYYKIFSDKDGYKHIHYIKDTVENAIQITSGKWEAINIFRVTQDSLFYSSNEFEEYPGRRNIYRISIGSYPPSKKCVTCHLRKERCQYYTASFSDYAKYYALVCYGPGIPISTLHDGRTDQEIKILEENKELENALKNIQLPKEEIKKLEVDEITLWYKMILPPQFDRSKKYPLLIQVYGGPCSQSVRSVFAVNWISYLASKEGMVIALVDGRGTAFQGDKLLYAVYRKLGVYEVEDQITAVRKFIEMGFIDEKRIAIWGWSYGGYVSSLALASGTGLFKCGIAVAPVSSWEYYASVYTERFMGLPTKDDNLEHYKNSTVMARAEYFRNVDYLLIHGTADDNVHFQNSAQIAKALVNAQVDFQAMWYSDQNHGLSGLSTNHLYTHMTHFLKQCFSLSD
Briefly: FAP FRET assay, FGF21-sequence FRET peptide substrate. As to conditions: FRET peptide with human FGF21 sequence, 6 μM, 37° C. An outline of the steps:
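FRET peptide bearing human FGF21 sequence (6 μM final) cleaved by 10 ng recombinant human FAP at 37° C in HEPES pH 7.2 buffer with NaCl, BSA and EDTA, DMSO up to 0.1%. Signal-rate decrease versus uninhibited control fitted to a four-variable logistic model for IC50.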

The target in another assay is DPP4 (Homo sapiens, UniProt P27487). Nature of the assay: DPP4 inhibition, fluorogenic substrate H-Gly-Pro-AMC. As to conditions: recombinant human DPP4. Details: purchased R&D Systems.
Chain of DPP4 (P27487 whole entry): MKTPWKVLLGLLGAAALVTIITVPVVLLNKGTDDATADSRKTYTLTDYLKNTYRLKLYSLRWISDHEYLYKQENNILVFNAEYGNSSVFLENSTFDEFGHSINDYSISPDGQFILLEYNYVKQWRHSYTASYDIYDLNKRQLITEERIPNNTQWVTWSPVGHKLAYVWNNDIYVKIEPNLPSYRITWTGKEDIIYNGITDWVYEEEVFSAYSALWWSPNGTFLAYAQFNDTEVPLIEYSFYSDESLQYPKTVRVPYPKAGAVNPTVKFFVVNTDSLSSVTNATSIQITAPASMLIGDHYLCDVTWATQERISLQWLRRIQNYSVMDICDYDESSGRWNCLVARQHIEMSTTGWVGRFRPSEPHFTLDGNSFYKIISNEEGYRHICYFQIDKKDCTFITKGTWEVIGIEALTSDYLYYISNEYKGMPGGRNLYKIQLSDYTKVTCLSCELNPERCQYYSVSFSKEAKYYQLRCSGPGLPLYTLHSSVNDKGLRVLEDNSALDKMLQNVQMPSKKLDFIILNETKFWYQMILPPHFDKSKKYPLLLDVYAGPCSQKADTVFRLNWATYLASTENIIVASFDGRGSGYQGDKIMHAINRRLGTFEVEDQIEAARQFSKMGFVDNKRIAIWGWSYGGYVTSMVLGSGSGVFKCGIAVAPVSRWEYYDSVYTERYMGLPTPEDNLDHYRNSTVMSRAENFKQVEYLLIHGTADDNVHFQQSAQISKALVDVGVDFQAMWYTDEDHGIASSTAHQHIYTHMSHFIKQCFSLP

T2 sequence (Q86TI2 whole entry): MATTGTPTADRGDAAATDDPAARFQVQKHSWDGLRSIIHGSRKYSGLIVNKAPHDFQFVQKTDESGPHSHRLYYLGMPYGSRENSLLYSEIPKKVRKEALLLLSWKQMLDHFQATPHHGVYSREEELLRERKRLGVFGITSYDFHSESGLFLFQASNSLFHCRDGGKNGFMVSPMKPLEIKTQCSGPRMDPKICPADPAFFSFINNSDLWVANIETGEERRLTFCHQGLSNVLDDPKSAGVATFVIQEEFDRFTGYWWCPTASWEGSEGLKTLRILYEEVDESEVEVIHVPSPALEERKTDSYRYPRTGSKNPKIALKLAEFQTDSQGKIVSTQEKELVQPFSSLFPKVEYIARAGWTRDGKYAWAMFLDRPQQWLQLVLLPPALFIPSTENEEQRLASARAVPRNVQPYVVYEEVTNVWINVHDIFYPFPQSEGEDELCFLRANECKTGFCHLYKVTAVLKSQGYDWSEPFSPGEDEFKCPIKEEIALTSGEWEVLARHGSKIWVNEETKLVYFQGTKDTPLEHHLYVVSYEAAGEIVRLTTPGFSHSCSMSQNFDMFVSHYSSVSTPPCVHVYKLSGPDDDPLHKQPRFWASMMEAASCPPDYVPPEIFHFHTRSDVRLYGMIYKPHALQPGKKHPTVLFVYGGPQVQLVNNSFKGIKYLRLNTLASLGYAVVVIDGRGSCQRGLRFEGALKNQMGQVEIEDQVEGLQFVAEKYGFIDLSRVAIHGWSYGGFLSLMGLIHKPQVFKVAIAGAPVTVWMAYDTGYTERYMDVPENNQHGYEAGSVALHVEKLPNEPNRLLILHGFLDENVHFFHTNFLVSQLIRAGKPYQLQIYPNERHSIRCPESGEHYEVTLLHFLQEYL

What is called IC50 is the concentration at which inhibition is half-maximal. As to `CN(c1ccc(OC(F)(F)F)c2ncccc12)[C@H]1CCN(CC(=O)N2C[C@@H](F)C[C@H]2C#N)C1` [Example 160, (2S,4S)-4-fluoro-1-[2-[(3S)-3-[methyl-[8-(trifluoromethoxy)-5-quinolyl]amino]pyrrolidin-1-yl]acetyl]pyrrolidine-2-carbonitrile], the IC50 on recombinant human DPP7 was 77.8 nM; at recombinant human DPP9, 2820 nM; on recombinant human PREP, 1080 nM; on Recombinant human FAP, 4.9 nM; at DPP4 it was 1780 nM.

`N#C[C@@H]1C[C@H](F)CN1C(=O)CN1CC[C@@H](Nc2cnc3nc(Cl)ccc3c2)C1` [Example 172, (2S,4S)-4-fluoro-1-[2-[(3R)-3-[(7-chloro-1,8-naphthyridin-3-yl)amino]pyrrolidin-1-yl]acetyl]pyrrolidine-2-carbonitrile]: the IC50 was 4900 nM on recombinant human DPP7; 5400 nM at recombinant human DPP9; 4240 nM on recombinant human PREP; 9.3 nM on Recombinant human FAP; 1870 nM at DPP4.

As for `N#C[C@@H]1C[C@H](F)CN1C(=O)CN1CC[C@@H](Nc2c(F)ccc3ncccc23)C1` [Example 173, (2S,4S)-4-fluoro-1-[2-[(3R)-3-[(6-fluoro-5-quinolyl)amino]pyrrolidin-1-yl]acetyl]pyrrolidine-2-carbonitrile], the IC50 on recombinant human DPP7 stood at 11100 nM; at recombinant human DPP9 it was 2950 nM; at recombinant human PREP, 1870 nM; on Recombinant human FAP, 5.3 nM; at DPP4, 1120 nM.

`N#C[C@@H]1C[C@H](F)CN1C(=O)CN1CC[C@@H](Nc2cc(F)cc3ncccc23)C1` [Example 174, (2S,4S)-4-fluoro-1-[2-[(3R)-3-[(7-fluoro-5-quinolyl)amino]pyrrolidin-1-yl]acetyl]pyrrolidine-2-carbonitrile]: the IC50 worked out at 846 nM at recombinant human DPP7; 1990 nM at recombinant human DPP9; 2440 nM at recombinant human PREP; 2.6 nM at Recombinant human FAP; 3020 nM on DPP4.

On to `COc1cc(N[C@@H]2CCN(CC(=O)N3C[C@@H](F)C[C@H]3C#N)C2)c2cccnc2c1` [Example 177, (2S,4S)-4-fluoro-1-[2-[(3R)-3-[(7-methoxy-5-quinolyl)amino]pyrrolidin-1-yl]acetyl]pyrrolidine-2-carbonitrile], for which the IC50 on recombinant human DPP7 is 46.9 nM; on recombinant human DPP9, 1170 nM; at recombinant human PREP, 2920 nM; at Recombinant human FAP, 2.6 nM; on DPP4, 3420 nM.

As to `COc1ccc(N[C@@H]2CCN(CC(=O)N3C[C@@H](F)C[C@H]3C#N)C2)c2cccnc12` [Example 178, (2S,4S)-4-fluoro-1-[2-[(3R)-3-[(8-methoxy-5-quinolyl)amino]pyrrolidin-1-yl]acetyl]pyrrolidine-2-carbonitrile], the IC50 at recombinant human DPP7 was determined as 5960 nM; on recombinant human DPP9, 2570 nM; at recombinant human PREP, 2350 nM; on Recombinant human FAP, 10.1 nM; on DPP4, 1360 nM.

For `Cc1cnc2cccc(N[C@@H]3CCN(CC(=O)N4C[C@@H](F)C[C@H]4C#N)C3)c2c1` [Example 179, (2S,4S)-4-fluoro-1-[2-[(3R)-3-[(3-methyl-5-quinolyl)amino]pyrrolidin-1-yl]acetyl]pyrrolidine-2-carbonitrile], the IC50 on recombinant human DPP7 came to 401 nM; at recombinant human DPP9, 2560 nM; at recombinant human PREP, 2930 nM; on Recombinant human FAP, 3.6 nM; at DPP4, 1940 nM.

For the compound `Cc1ccc2ncccc2c1N[C@@H]1CCN(CC(=O)N2C[C@@H](F)C[C@H]2C#N)C1` [Example 180, (2S,4S)-4-fluoro-1-[2-[(3R)-3-[(6-methyl-5-quinolyl)amino]pyrrolidin-1-yl]acetyl]pyrrolidine-2-carbonitrile], the IC50 on recombinant human DPP7 worked out at 6790 nM; at recombinant human DPP9, 3180 nM; on recombinant human PREP it was 1560 nM; on Recombinant human FAP, 6.2 nM; at DPP4, 1020 nM.

Consider `Cc1ccc(N[C@@H]2CCN(CC(=O)N3C[C@@H](F)C[C@H]3C#N)C2)c2cccnc12` [Example 181, (2S,4S)-4-fluoro-1-[2-[(3R)-3-[(8-methyl-5-quinolyl)amino]pyrrolidin-1-yl]acetyl]pyrrolidine-2-carbonitrile], for which the IC50 at recombinant human DPP7 is 215 nM; at recombinant human DPP9 it was 4620 nM; on recombinant human PREP, 4670 nM; at Recombinant human FAP it was 2.6 nM; at DPP4, 1060 nM.

As for `N#C[C@@H]1C[C@H](F)CN1C(=O)CN1CC[C@@H](Nc2cc(C(F)(F)F)cc3ncccc23)C1` [Example 182, (2S,4S)-4-fluoro-1-[2-[(3R)-3-[[7-(trifluoromethyl)-5-quinolyl]amino]pyrrolidin-1-yl]acetyl]pyrrolidine-2-carbonitrile], the IC50 is 819 nM on recombinant human DPP7; 6690 nM at recombinant human DPP9; 5360 nM at recombinant human PREP; 3.3 nM at Recombinant human FAP; 4070 nM at DPP4.

Take `N#C[C@@H]1C[C@H](F)CN1C(=O)CN1CC[C@@H](Nc2ccc(C(F)(F)F)c3ncccc23)C1` [Example 183, (2S,4S)-4-fluoro-1-[2-[(3R)-3-[[8-(trifluoromethyl)-5-quinolyl]amino]pyrrolidin-1-yl]acetyl]pyrrolidine-2-carbonitrile]: the IC50 is 1370 nM on recombinant human DPP7; 6770 nM at recombinant human DPP9; 3370 nM on recombinant human PREP; 2.2 nM at Recombinant human FAP; 1840 nM on DPP4.
